Counter-ions that a name gives are not always drawn. Like-named read-outs stand apart in the source and are kept apart here.
How the values were obtained:
A-431 cells = assay: Antiproliferation assay A-431 (Assay 7); assay type: cell-based; details: Homo sapiens, A-431, 72 h, read-out: Antiproli A-431 IC50 median
Experimental: (§1) Assessment of the Anti-Proliferative Effect of Compounds in Different Cell Lines
(§2) The impact of compounds on the proliferation of different cell lines was assessed using the CellTiter-Glo® Luminescent Cell Viability reagent from Promega (G7573).
(§3) In parallel, cells were plated in a reference (day 0) plate for time zero determination. Cells were incubated in a humidified incubator at 37° C. overnight.
(§4) Rim wells were excluded. The cells were incubated for 72 h hours in a humidified incubator at 37° C. The day 0 plate was measured by adding 30 μL/well of CTG solution (CellTiter-Glo® Luminescent Cell Viability reagent, Promega G7573) to time zero wells in the reference plate followed by a 10 minutes incubation and luminescence reading at 0.1 ms. using the PHERAstar FS microplate reader (BMG Labtech).
(§5) After 72 h incubation, the treated plates were measured in the same way as the day 0 plate mentioned above. The Bella DRC Master Sheet was used to calculate IC50s, with CI=day 0 values and C0=DMSO control values.

MCL-1 [1] = molecular target: T1, MCL-1 (Homo sapiens (Human), UniProt Q07820, K194A/K197A/R201A); assay: Protein-compound interaction assay (SPR assay, Assay 9); assay type: binding; details: for Kd: KD (geometric mean); for koff: read-out: koff (geometric mean), SPR, 25° C.; for kon: read-out: kon (geometric mean), SPR, 25° C.
Source text: Assay 9 Protein-Compound Interaction Assay (SPR Assay)
The ability of the compounds described in this invention to bind to MCL-1 may be determined using surface plasmon resonance (SPR). This allows for the quantification of binding in terms of the equilibrium dissociation constant (KD [M]), as well as association and dissociation rate constants (kon [1/Ms] and koff [1/s], respectively). The measurements may be performed using Biacore® T200 or Biacore® S200 instruments (GE Healthcare).
Briefly, carboxymethylated dextran biosensor chips (Series S Sensor Chip CMS, GE Healthcare) were activated with 1-ethyl-3-(3-dimethylaminopropyl)-carbodiimide hydrochloride (EDC) and N-hydroxysuccinimide (NHS) according to the supplier's instructions. MBP-MCL-1 was diluted in 1×PBS-P+ (GE Healthcare) and injected on the activated chip surface. Subsequently, a solution of 1 M ethanolamine-HCl (GE Healthcare) was injected to block unreacted groups, resulting in approximately 400-2500 response units (RU) of immobilized protein. A reference surface was generated by treatment with NHS-EDC and ethanolamine-HCl. […] Compounds were injected for 60 s followed by a dissociation time of up to 1000 s.
The double-referenced sensorgrams were fit to a simple reversible Langmuir 1:1 reaction mechanism as implemented in the Biacore® T200 and S200 evaluation software (T200 evaluation software version 2.0 and S200 evaluation software version 1.0, GE Healthcare).
Target sequence in this assay (Q07820 whole entry K194A/K197A/R201A, looked up): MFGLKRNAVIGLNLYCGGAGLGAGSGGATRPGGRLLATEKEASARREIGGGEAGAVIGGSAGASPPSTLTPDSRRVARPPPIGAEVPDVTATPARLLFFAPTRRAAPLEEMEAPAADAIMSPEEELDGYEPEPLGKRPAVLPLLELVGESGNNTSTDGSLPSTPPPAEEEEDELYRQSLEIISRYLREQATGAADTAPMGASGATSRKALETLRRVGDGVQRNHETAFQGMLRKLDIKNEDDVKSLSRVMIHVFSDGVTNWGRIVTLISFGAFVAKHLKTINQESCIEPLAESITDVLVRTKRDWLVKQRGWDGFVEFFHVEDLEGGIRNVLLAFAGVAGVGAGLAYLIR

SK-MEL-2 cells = assay: Antiproliferation assay SK-MEL-2 (Assay 7); assay type: cell-based; details: Homo sapiens, SK-MEL-2, 72 h, read-out: Antiproli SK-MEL-2 IC50 median
Method in brief: (§6)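 Anti-proliferative effect was measured by CellTiter-Glo ATP luminescence after 72 h compound exposure at 37° C, following overnight plating. IC50s were derived using a parallel time-zero plate and DMSO-treated controls as reference points.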

SNU-389 cells = assay: Antiproliferation assay SNU-389 (Assay 7); assay type: cell-based; details: 72 h, read-out: Antiproli SNU-389 IC50
Method in brief: as §6

SNU-16 cells = assay: Antiproliferation assay SNU-16 (Assay 7); assay type: cell-based; details: Homo sapiens, SNU-16, 72 h, read-out: Antiproli SNU-16 IC50 median
Experimental: as §1, §2, §3, §4, §5

DMS-114 cells = assay: Antiproliferation assay DMS-114 (Assay 7); assay type: cell-based; details: Homo sapiens, read-out: Antiproli DM-S114 IC50 median
Experimental: as §1, §2, §3, §4, §5

MCL-1 [2] = molecular target: T1, MCL-1; assay: Protein-protein interaction assay MCL-1/Noxa BH3 peptide (MCL-1 assay, TR-FRET); assay type: binding; details: MCL-1 Assay IC50 (median)
Method in brief: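 Competition TR-FRET with MBP-MCL-1 (aa 173-321) at 1 nM final and biotinylated Noxa BH3 peptide, pH 7 Tris buffer. Compounds pre-incubated 10 min at 22° C., then 1 h at 22° C. and overnight at 4° C. 665/620 nm ratio normalized to DMSO; IC50 from 4-parameter fit.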
Target sequence in this assay (Q07820 whole entry, looked up, stated change not applied): as the sequence (Q07820 whole entry K194A/K197A/R201A, looked up) above, with A194K, A197K, A201R counted along it

MV-4-11 cells = assay: Antiproliferation assay MV-4-11 (Assay 7); assay type: cell-based
Experimental: as §1, §2, §3, §4, §5

[3] = Homo sapiens, MV4-11, 72 h, CellTiter-Glo, read-out: Antiproli MV-4-11 IC50 median
[4] = DMS-114 cells, 72 h, CellTiter-Glo
[5] = 72 h, CellTiter-Glo; read-out: Antiproli MV-4-11 IC50 median

**Q.** What does the source list for CCc1c2c(nn1C)C(CCC1CCOCC1)OCCCCn1c(C(=O)O)c(CCCOc3cccc4cc(F)ccc34)c3ccc(Cl)c-2c31 (single isomer, unassigned; enantiomer 1) [Example 63, (+)-4-chloro-3-ethyl-7-{3-[(6-fluoronaphthalen-1-yl)oxy]propyl}-2-methyl-15-[2-(oxan-4-yl)ethyl]-2,10,11,12,13,15-hexahydropyrazolo[4′,3′:9,10][1,6]oxazacycloundecino[8,7,6-hi]indole-8-carboxylic Acid—N-ethylethanamine Salt (Enantiomer 1)]?
**A.** IC50 (A-431 cells): 272 nM; Kd (MCL-1 [1]; SPR, 25° C.): 1.4 nM; koff (MCL-1 [1]): 0.0016 s⁻¹; kon (MCL-1 [1]): 1.1e+06 M⁻¹ s⁻¹; IC50 (SK-MEL-2 cells): 324 nM; IC50 (SNU-389 cells): 183 nM; IC50 (SNU-16 cells): 276 nM; IC50 (DMS-114 cells; DMS-114, 72 h): 156 nM

**Q.** With Cc1c2c(nn1C)C(CCN1CCOCC1)OCCCCn1c(C(=O)O)c(CCCOc3cccc4cc(F)ccc34)c3ccc(Cl)c-2c31 (racemic) [Example 16, (rac)-4-chloro-7-{3-[(6-fluoronaphthalen-1-yl)oxy]propyl}-2,3-dimethyl-15-[2-(morpholin-4-yl)ethyl]-2,10,11,12,13,15-hexahydropyrazolo[4′,3′:9,10][1,6]oxazacycloundecino[8,7,6-hi]indole-8-carboxylic Acid] as the molecule, how does the IC50 (SNU-389 cells; CellTiter-Glo) read?
**A.** 118 nM

**Q.** What about the IC50 (MCL-1 [2]) of the same molecule?
**A.** 2 nM

**Q.** And the IC50 (MV-4-11 cells; [3])?
**A.** 34.6 nM

**Q.** Which IC50 (A-431 cells) does the source give for Cc1c2c(nn1C)C(CCN1CCOCC1)OCCCCn1c(C(=O)O)c(CCCOc3cccc4cc(F)ccc34)c3ccc(F)c-2c31 (single isomer, unassigned; enantiomer 1) [Example 20, 4-fluoro-7-{3-[(6-fluoronaphthalen-1-yl)oxy]propyl}-2,3-dimethyl-15-[2-(morpholin-4-yl)ethyl]-2,10,11,12,13,15-hexahydropyrazolo[4′,3′:9,10][1,6]oxazacycloundecino[8,7,6-hi]indole-8-carboxylic Acid—N-ethylethanamine (Enantiomer 1)] here?
**A.** 462 nM

**Q.** What about the Kd (MCL-1 [1]; SPR, 25° C.) of the same molecule?
**A.** 0.56 nM

**Q.** What about the koff (MCL-1 [1]) of the same molecule?
**A.** 0.018 s⁻¹

**Q.** What about the kon (MCL-1 [1]) of the same molecule?
**A.** 3.2e+07 M⁻¹ s⁻¹

**Q.** What about the IC50 (SK-MEL-2 cells) of the same molecule?
**A.** 607 nM

**Q.** What about the IC50 (SNU-389 cells) of the same molecule?
**A.** 437 nM

**Q.** And the IC50 (SNU-16 cells)?
**A.** 397 nM

**Q.** And the IC50 (DMS-114 cells; DMS-114, 72 h)?
**A.** 222 nM

**Q.** What does the source list for Cc1c2c(nn1C)C(CCN1CCOCC1)OCCCCn1c(C(=O)O)c(CCCOc3cccc4ccccc34)c3ccc(Cl)c-2c31 (single isomer, unassigned; enantiomer 1) [Example 14, 4-chloro-2,3-dimethyl-15-[2-(morpholin-4-yl)ethyl]-7-{3-[(naphthalen-1-yl)oxy]propyl}-2,10,11,12,13,15-hexahydropyrazolo[4′,3′:9,10][1,6]oxazacycloundecino[8,7,6-hi]indole-8-carboxylic Acid (Enantiomer 1)]?
**A.** Kd (MCL-1 [1]; SPR, 25° C.): 1.3 nM; koff (MCL-1 [1]): 0.031 s⁻¹; kon (MCL-1 [1]): 2.3e+07 M⁻¹ s⁻¹; IC50 (SNU-389 cells; CellTiter-Glo): 183 nM; IC50 (MCL-1 [2]): 0.53 nM; IC50 (DMS-114 cells; [4]): 150 nM; IC50 (MV-4-11 cells; [5]): 37.6 nM

**Q.** Which results are given for CCc1c2c(nn1C)C(CCOC)OCCCCn1c(C(=O)O)c(CCCOc3cccc4cc(F)ccc34)c3ccc(Cl)c-2c31 (single isomer, unassigned; enantiomer 1) [Example 42, (+)-4-chloro-3-ethyl-7-{3-[(6-fluoronaphthalen-1-yl)oxy]propyl}-15-(2-methoxyethyl)-2-methyl-2,10,11,12,13,15-hexahydropyrazolo[4′,3′:9,10][1,6]oxazacycloundecino[8,7,6-hi]indole-8-carboxylic Acid—N-ethylethanamine Salt (Enantiomer 1)]?
**A.** Kd (MCL-1 [1]; SPR, 25° C.): 2.8 nM; koff (MCL-1 [1]): 0.0032 s⁻¹; kon (MCL-1 [1]): 1.2e+06 M⁻¹ s⁻¹; IC50 (SNU-389 cells): 270 nM; IC50 (DMS-114 cells; DMS-114, 72 h): 156 nM

**Q.** Which IC50 (MCL-1 [2]) does the source give for Cc1c2c(nn1C)C(CCN1CCOCC1)OCCCCn1c(C(=O)O)c(CCCOc3cccc4ccccc34)c3ccc(Cl)c-2c31 (single isomer, unassigned; enantiomer 2) [Example 15, 4-chloro-2,3-dimethyl-15-[2-(morpholin-4-yl)ethyl]-7-{3-[(naphthalen-1-yl)oxy]propyl}-2,10,11,12,13,15-hexahydropyrazolo[4′,3′:9,10][1,6]oxazacycloundecino[8,7,6-hi]indole-8-carboxylic Acid (Enantiomer 2)] here?
**A.** 65 nM

**Q.** What about the IC50 (MV-4-11 cells; [5]) of the same molecule?
**A.** 7840 nM

**Q.** With CCc1c2c(nn1C)C(CCN1CCOCC1)OCCCCn1c(C(=O)O)c(CCCOc3cccc4ccccc34)c3ccc(F)c-2c31 (single isomer, unassigned; enantiomer 2) [Example 12, 3-ethyl-4-fluoro-2-methyl-15-[2-(morpholin-4-yl)ethyl]-7-{3-[(naphthalen-1-yl)oxy]propyl}-2,10,11,12,13,15-hexahydropyrazolo[4′,3′:9,10][1,6]oxazacycloundecino[8,7,6-hi]indole-8-carboxylic Acid—N-ethylethanamine Salt (Enantiomer 2)] as the molecule, how does the Kd (MCL-1 [1]; SPR, 25° C.) read?
**A.** 22 nM

**Q.** What about the “koff (geometric mean)” value (MCL-1 [1]; SPR, 25° C.) of the same molecule?
**A.** 3.4 E−3 1/s

**Q.** What about the “kon (geometric mean)” value (MCL-1 [1]; SPR, 25° C.) of the same molecule?
**A.** 1.5 E5 1/M 1/s

**Q.** What about the IC50 (MV-4-11 cells; read-out: Antiproli MV-4-11 IC50 median; 72 h, CellTiter-Glo) of the same molecule?
**A.** 14400 nM

**Q.** Which IC50 (MCL-1 [2]) does the source give for Cc1c2c(nn1C)C(CCN1CCOCC1)OCCCCn1c(C(=O)O)c(CCCOc3cccc4ccccc34)c3ccc(Cl)c-2c31 (racemic) [Example 13, (rac)-4-chloro-2,3-dimethyl-15-[2-(morpholin-4-yl)ethyl]-7-{3-[(naphthalen-1-yl)oxy]propyl}-2,10,11,12,13,15-hexahydropyrazolo[4′,3′:9,10][1,6]oxazacycloundecino[8,7,6-hi]indole-8-carboxylic Acid] here?
**A.** 1.6 nM

**Q.** And the IC50 (MV-4-11 cells; [3])?
**A.** 220 nM

**Q.** With CCc1c2c(nn1C)C(CCO)OCCCCn1c(C(=O)O)c(CCCOc3cccc4cc(F)ccc34)c3ccc(Cl)c-2c31 (single isomer, unassigned; enantiomer 1) [Example 45, (+)-4-chloro-3-ethyl-7-{3-[(6-fluoronaphthalen-1-yl)oxy]propyl}-15-(2-hydroxyethyl)-2-methyl-2,10,11,12,13,15-hexahydropyrazolo[4′,3′:9,10][1,6]oxazacycloundecino[8,7,6-hi]indole-8-carboxylic Acid (Enantiomer 1)] as the molecule, how does the Kd (MCL-1 [1]; SPR, 25° C.) read?
**A.** 2.3 nM

**Q.** And the koff (MCL-1 [1])?
**A.** 0.0068 s⁻¹

**Q.** And the kon (MCL-1 [1])?
**A.** 3e+06 M⁻¹ s⁻¹

**Q.** And the IC50 (SNU-389 cells; CellTiter-Glo)?
**A.** 350 nM

**Q.** What about the IC50 (MCL-1 [2]) of the same molecule?
**A.** 0.55 nM

**Q.** What about the IC50 (DMS-114 cells; [4]) of the same molecule?
**A.** 298 nM

**Q.** For Cc1c2c(nn1C)C(CCN1CCOCC1)OCCCCn1c(C(=O)O)c(CCCOc3cccc4cc(F)ccc34)c3ccc(F)c-2c31 (racemic) [Example 19, (rac)-4-fluoro-7-{3-[(6-fluoronaphthalen-1-yl)oxy]propyl}-2,3-dimethyl-15-[2-(morpholin-4-yl)ethyl]-2,10,11,12,13,15-hexahydropyrazolo[4′,3′:9,10][1,6]oxazacycloundecino[8,7,6-hi]indole-8-carboxylic Acid], which IC50 (MCL-1 [2]) is on record?
**A.** 1.6 nM

**Q.** What about the IC50 (MV-4-11 cells; [3]) of the same molecule?
**A.** 140 nM

Reference: US11440923B2, “Substituted macrocyclic indole derivatives” (Bayer Aktiengesellschaft, priority 2017, dated 2022)
